What was measured:
Wnt signaling pathway = assay: Activity assay of the reporter gene (Wnt signaling pathway activation, Wnt3a conditioned medium); assay type: cell-based
Description: After 6 hours, the cells are collected and activities of the report genes are determined.
Activity Assay of the Reporter Gene
HEK293T, HCT116, SW480 or NIH3T3 cells used for activity assay of the reporter gene were inoculated into 24-wells plates respectively 24 hours before transfection then transfected following the above mentioned reference method. The amount of the plasmids used for Transfection was: 20 ng of TOPFlash, NFAT-Luc, or SRF-Luc, and 25 ng of EGFP-C1 (HEK293T); 25 ng of LEF-Luc, 75 ng of LEF1, and 25 ng of EGFP-C1 (NIH3T3); 100 ng of TOPFlash or Fopfllash and 100 ng of EGFP-C1 (HCT116 and SW480). The cells were transfected with other plasmids following experimental requirements, LacZs were added to meet a total content of 250 ng (in RNAi and plasmid co-transfection experiments, 1 μl of siRNA was added when every 100 ng/well of the plasmid was transfected). Wnt3a conditioned medium was added 18 hours after transfection to stimulate the cells for 6-8 hours, the cells were lysed using Boehringer Mannheim Luci-ferase Assay Kit (200 μl/well). Intensity of GFP proteins in cell lysates were determined as internal standards of expression quantity of the cells using fluorescence meter FL600 (BIO-TEK Inc. Winooski, Vt.), and then 20 μl of luciferase substrates were added. Luciferase activity was determined with Micro Lumate Plus (Perkin Elmer Inc. Wellesley, Mass.) luminometer. Finally, the luciferase activity was homogenized using activity of GFP.

HCV = assay: microbe, parasite or virus in culture; assay type: cell-based, Hepatitis C Virus (HCV); conditions: Huh7.5 cells infected with HCV, 72 hrs, intracellular HCV RNA by qRT-PCR, Reed-Muench method; read-out: EC50
Description: (2) Anti-HCV Activity of the Compound in Cells:
The total RNA was extracted from the cells. The intracellular content of HCV and RNA of internal control gene GAPDH were determined by real-time fluorescence qRT-PCR.

Huh7.5 cells = assay: in vitro
Description: (§1) (1) Toxicity Experiment of the Compound on Huh7.5:
(§2) 100 μL of Huh7.5 cells (1×10^5/ml) was inoculated in 96-wells plates and incubated in an incubator at 37° C. under 5% of CO2 and saturated humidity for 24 hrs. Then different concentration of the compound of the present invention and positive control (VX-950, telaprevir) were added respectively and incubated for a further 72 hrs. 10 μL of MTT (5 mg/mL) was added per well and incubated for another 4 hrs. After the cells were lysed with DMSO, OD570-630 […] was determined on ELIASA. In comparison with OD of the control group, inhibitory rate of each concentration on cell toxicity was calculated, and half toxic concentration of the compound was calculated with Reed-Muench method.

[1] = Toxicity experiment of the compound on Huh7.5 (MTT); conditions: human, CC50, Huh7.5 cells, 72 hrs, MTT, half toxic concentration by Reed-Muench method
Description: as §1, §2

| Compound | EC50 (HCV) | CC50 (Huh7.5 cells) | other results |
| --- | --- | --- | --- |
| CCc1cccc2c1N(C)Cc1cc(OCc3cn(CCN)nn3)c(OCc3cn(CCN)nn3)cc1-2 [Compound 10q, 4-ethyl-5-methyl-8,9-bis[1-(2-amino-ethyl)-1H-[1,2,3]triazol-4-ylmethoxy]-5,6-dihydro-phenanthridine] |  |  | melting point: 196 to 197 °C; activation of the reporter gene systems of classical Wnt signaling pathway (Wnt signaling pathway; in the way of depending on Wnt3a receptors): activate the reporter gene systems of classical Wnt signaling pathway; Concentration of compounds for doubly synergetic activating Wnt reporter gene (Wnt signaling pathway; reporter gene, with Wnt3a conditioned medium): 1.25 µM |
| C=Cc1cccc2c1N(C)Cc1cc(OCc3cccc(OC)c3OC)c(OCc3cccc(OC)c3OC)cc1-2 [Compound 11f, 4-ethenyl-5-methyl-8,9-di(2,3-dimethoxy)benzyloxy-5,6-dihydro-phenanthridine] | 0.3 ± 0.01 µM | 32.9 ± 1.28 µM |  |
| C=Cc1cccc2c1N(C)Cc1cc(OCc3ccc(C#N)cc3)c(OCc3ccc(C#N)cc3)cc1-2 [Compound 11g, 4-ethenyl-5-methyl-8,9-di(4-cyano)benzyloxy-5,6-dihydro-phenanthridine] | > 0.37 µM | 25.9 ± 0.82 µM |  |
| C=Cc1cccc2c1N(C)Cc1cc(OC(=O)CCCC)c(OC(=O)CCCC)cc1-2 [Compound 11k, 4-ethenyl-5-methyl-8,9-divaleryoxy-5,6-dihydro-phenanthridine] | 0.94 ± 0.02 µM | > 100 µM |  |
| C=Cc1cccc2c1N(C)Cc1cc(OC(=O)c3ccc(Br)cc3)c(OC(=O)c3ccc(Br)cc3)cc1-2 [Compound 11n, 4-ethenyl-5-methyl-8,9-di(4-bromo)benzoyloxy-5,6-dihydro-phenanthridine] | 4.58 ± 0.55 µM | 82.6 ± 3.28 µM |  |
| CCC[C@H](NC(=O)[C@@H]1[C@H]2CCC[C@H]2CN1C(=O)[C@@H](NC(=O)[C@@H](NC(=O)c1cnccn1)C1CCCCC1)C(C)(C)C)C(=O)C(=O)NC1CC1 [VX-950, telaprevir, reference compound] |  |  | CC50 (Huh7.5 cells; Huh7.5 cells, 72 hrs, MTT, half toxic concentration by Reed-Muench method): 32.5 ± 0.58 µM; CC50 at 72 h [1]: 39.5 ± 4.9 µM |

Reference: patent US9682954B2, “Phenanthridine derivatives, preparation methods and uses thereof” (Kunming Institute of Botany, The Chinese Academy of Sciences, priority 2013, dated 2017)
